Patent US9815796B2 (Merck Sharp & Dohme Corp., priority 2013, dated 2017)
Where two headings read alike, the source gives them in different places.

Legend:
Rhesus PDE2A3 = Rhesus PDE2A3 (Macaca mulatta, UniProt B3VTJ2); assay: PDE2 fluorescence polarization (IMAP FP) inhibition assay, rhesus enzyme; format: biochemical, rhesus macaque
Method in brief: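 IMAP FP (mP from parallel and perpendicular fluorescence against substrate-only control) was read ≥1 h after adding binding reagent. The preceding 60 min room-temperature reaction contained FAM-cAMP (50 nM) and cGMP (1 uM) in pH 7.2 Tris buffer with MgCl2 and DTT. Enzyme was supernatant of sonicated AD293 cells expressing rhesus PDE2A3; compounds were 3-fold titrated, DMSO 1% final.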

human PDE2A1 = human PDE2A1 (Homo sapiens (Human), UniProt O00408); assay: IMAP FP PDE selectivity panel, human PDE2A1; format: biochemical
Method in brief: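 IMAP FP format: substrate 50 nM FAM-cAMP plus 1000 nM cGMP, enzyme (insect-cell GST-tagged human PDE2A1) at ~20% conversion, 60 min reaction at room temperature. Apparent inhibition constants calculated from parallel/perpendicular fluorescence with KM 10,000 nM.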

[1] = Rhesus PDE2, Lab B, read-out: Rhesus PDE2 Ki (nM) - Lab B
[2] = Human PDE2, Lab B, read-out: Human PDE2 Ki (nM) - Lab B
[3] = Rhesus PDE2, Lab A, read-out: Rhesus PDE2 Ki (nM) - Lab A
[4] = Human PDE2, Lab A, read-out: Human PDE2 Ki (nM) - Lab A

Sequence of Rhesus PDE2A3 (B3VTJ2 1-941): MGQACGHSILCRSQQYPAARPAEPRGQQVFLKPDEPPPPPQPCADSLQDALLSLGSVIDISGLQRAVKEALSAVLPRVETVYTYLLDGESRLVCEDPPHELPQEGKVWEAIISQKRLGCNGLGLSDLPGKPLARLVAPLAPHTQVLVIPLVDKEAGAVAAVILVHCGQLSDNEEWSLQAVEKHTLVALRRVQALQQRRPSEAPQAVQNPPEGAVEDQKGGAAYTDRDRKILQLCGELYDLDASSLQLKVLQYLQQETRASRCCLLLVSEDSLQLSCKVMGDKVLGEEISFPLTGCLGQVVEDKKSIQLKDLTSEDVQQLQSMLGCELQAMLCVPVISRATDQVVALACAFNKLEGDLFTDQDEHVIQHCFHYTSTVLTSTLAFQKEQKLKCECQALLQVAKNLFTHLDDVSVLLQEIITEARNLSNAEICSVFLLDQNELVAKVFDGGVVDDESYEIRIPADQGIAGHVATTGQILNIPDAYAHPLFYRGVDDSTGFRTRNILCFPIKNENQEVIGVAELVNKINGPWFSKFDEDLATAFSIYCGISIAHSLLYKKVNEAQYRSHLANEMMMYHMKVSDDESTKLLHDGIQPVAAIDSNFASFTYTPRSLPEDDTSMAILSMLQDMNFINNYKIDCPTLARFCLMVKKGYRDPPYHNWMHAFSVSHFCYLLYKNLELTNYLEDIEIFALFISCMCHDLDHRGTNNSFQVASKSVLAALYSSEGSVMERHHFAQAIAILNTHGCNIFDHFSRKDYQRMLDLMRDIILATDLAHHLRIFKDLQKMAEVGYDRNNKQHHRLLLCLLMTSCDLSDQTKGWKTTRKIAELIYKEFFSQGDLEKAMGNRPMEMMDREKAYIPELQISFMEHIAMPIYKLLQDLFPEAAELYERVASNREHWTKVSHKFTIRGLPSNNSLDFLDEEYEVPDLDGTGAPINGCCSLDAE
Sequence of human PDE2A1 (O00408 other isoform, or with tags, fused parts or gaps): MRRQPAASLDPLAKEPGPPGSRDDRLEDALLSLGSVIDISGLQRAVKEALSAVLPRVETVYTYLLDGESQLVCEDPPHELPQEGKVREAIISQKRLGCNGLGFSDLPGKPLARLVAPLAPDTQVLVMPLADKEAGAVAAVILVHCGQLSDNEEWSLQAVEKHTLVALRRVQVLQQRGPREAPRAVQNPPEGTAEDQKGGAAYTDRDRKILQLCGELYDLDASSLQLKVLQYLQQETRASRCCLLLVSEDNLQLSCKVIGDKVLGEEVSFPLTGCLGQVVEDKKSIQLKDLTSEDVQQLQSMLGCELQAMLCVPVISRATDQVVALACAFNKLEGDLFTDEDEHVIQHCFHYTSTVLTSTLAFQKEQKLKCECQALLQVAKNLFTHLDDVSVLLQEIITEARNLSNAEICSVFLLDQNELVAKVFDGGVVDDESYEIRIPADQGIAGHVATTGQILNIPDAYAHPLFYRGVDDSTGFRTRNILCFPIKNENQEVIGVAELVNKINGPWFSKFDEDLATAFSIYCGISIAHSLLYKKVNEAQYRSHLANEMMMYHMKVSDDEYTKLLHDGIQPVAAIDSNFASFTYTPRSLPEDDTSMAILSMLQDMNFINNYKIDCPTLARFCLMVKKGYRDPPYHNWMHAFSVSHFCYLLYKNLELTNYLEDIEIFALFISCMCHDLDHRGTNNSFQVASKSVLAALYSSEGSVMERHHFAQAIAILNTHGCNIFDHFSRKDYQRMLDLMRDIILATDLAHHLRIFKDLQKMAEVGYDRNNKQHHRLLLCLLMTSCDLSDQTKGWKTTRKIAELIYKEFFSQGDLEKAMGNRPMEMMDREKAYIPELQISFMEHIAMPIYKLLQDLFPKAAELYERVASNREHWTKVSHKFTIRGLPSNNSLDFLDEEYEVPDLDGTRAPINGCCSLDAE

| Compound | Ki (Rhesus PDE2A3; [1]) [nM] | Ki (human PDE2A1; [2]) [nM] | Ki (Rhesus PDE2A3; [3]) [nM] | Ki (human PDE2A1; [4]) [nM] |
| --- | --- | --- | --- | --- |
| CC[C@@H](NC(=O)c1cc(=O)[nH]c(-c2ccccc2)n1)c1ccc(SC(F)(F)F)c(F)c1 [Example 385, N-[(1R)-1-{3-fluoro-4-[(trifluoromethyl)sulfanyl]phenyl}pro-pyl]-6-oxo-2-phenyl-1,6-dihydropyrimidine-4-carboxamide] | 7 | 4.4 |  |  |
| COc1ccc(Cc2nc(C(=O)N[C@@H](c3ccc(SC(F)(F)F)cc3)C(C)(C)C)cc(=O)[nH]2)cc1F [Example 507, N-[(1R)-2,2-dimethyl-1-{4-[(trifluoromethyl)sulfanyl]phenyl}propyl]-2-(3-fluoro-4-methoxybenzyl)-6-oxo-1,6-dihydropyrimidine-4-carboxamide] | 1.1 | 1 |  |  |
| Cc1nc(C(=O)NC(C)(c2ccc(S(F)(F)(F)(F)F)cc2)C(C)C)cc(=O)[nH]1 (racemic) [Example 619, N-{1,2-dimethyl-1-[4-(pentafluoro-λ^6-sulfanyl)phenyl]propyl}-2-methyl-6-oxo-1,6-dihydropyrimidine-4-carboxamide] | 62 | 67 |  |  |
| Cc1nc(C(=O)N[C@@H](c2ccc(OC(F)(F)F)cc2)C2CC2)cc(=O)[nH]1 [Example 70, N-{(R)-cyclopropyl[4-(trifluoromethoxy)phenyl]methyl}-2-methyl-6-oxo-1,6-dihydropyrimidine-4-carboxamide] | 29 | 29 | 25 | ~14 |
| CC(C)(NC(=O)c1cc(=O)[nH]c(-c2ccccc2)n1)c1ccc(C(F)(F)F)cc1 [Example 280, N-{1-methyl-1-[4-(trifluoromethyl)phenyl]ethyl}-6-oxo-2-phenyl-1,6-dihydropyrimidine-4-carboxamide] |  |  | 19 | 16 |
| Cc1nc(C(=O)N[C@H](C)c2ccc(OC(F)(F)F)c(F)c2)cc(=O)[nH]1 [Example 22, N-{(1R)-1-[3-fluoro-4-(trifluoromethoxy)phenyl]ethyl}-2-methyl-6-oxo-1,6-dihydropyrimidine-4-carboxamide] | 14 | 14 | 13 | 8.6 |
| CC[C@@H](NC(=O)c1cc(=O)[nH]c(COC)n1)c1ccc(OC(F)(F)F)c(F)c1 [Example 114, N-{(1R)-1-[3-fluoro-4-(trifluoromethoxy)phenyl]propyl}-2-(methoxymethyl)-6-oxo-1,6-dihydropyrimidine-4-carboxamide] |  |  | 48 | ~11 |
| O=C(NC1(c2ccc(C(F)(F)F)c(F)c2)CC1)c1cc(=O)[nH]c(-c2ncccn2)n1 [Example 76, N-{1-[3-fluoro-4-(trifluoromethyl)phenyl]cyclopropyl}-6-oxo-1,6-dihydro-2,2′-bipyrimidine-4-carboxamide] | 18 | 21 | 17 |  |
| Cc1nc(C(=O)NC2(c3ccc(S(F)(F)(F)(F)F)cc3)CC2)cc(=O)[nH]1 [Example 622, 2-methyl-6-oxo-N-{1-[4-(pentafluoro-λ^6-sulfanyl)phenyl]cyclopropyl}-1,6-dihydropyrimidine-4-carboxamide] | 32 | 42 |  |  |
| C[C@@H](NC(=O)c1cc(=O)[nH]c(-c2ccc(F)c(F)c2)n1)c1ccc(C(F)(F)F)cc1 [Example 139, 2-(3,4-difluorophenyl)-6-oxo-N-{(1R)-1-[4-(trifluoromethyl)phenyl]ethyl}-1,6-dihydropyrimidine-4-carboxamide] |  |  | 138 | 144 |
| Cc1nc(C(=O)N[C@@H](c2ccc(OC(F)F)cc2)C(C)C)cc(=O)[nH]1 [Example 611, N-{(1R)-1-[4-(difluoromethoxy)phenyl]-2-methylpropyl}-2-methyl-6-oxo-1,6-dihydropyrimidine-4-carboxamide] | 44 | 37 |  |  |
| Cc1nc(C(=O)NC(C)c2ccc(C(C)C)cc2)cc(=O)[nH]1 (single isomer, unassigned) [Example 305, (R)- or (S)-2-methyl-N-{1-[4-(1-methylethyl)phenyl]ethyl}-6-oxo-1,6-dihydropyrimidine-4-carboxamide] |  |  | 26 | 20 |
| CC(C)(NC(=O)c1cc(=O)[nH]c(-c2ccccc2)n1)c1ccc(SC(F)(F)F)cc1 [Example 186, N-(1-methyl-1-{4-[(trifluoromethyl)sulfanyl]phenyl}ethyl)-6-oxo-2-phenyl-1,6-dihydropyrimidine-4-carboxamide] |  |  | 60 | 62 |
| Cc1nc(C(=O)NC(C)(C)c2ccc(OC(F)(F)F)cc2)cc(=O)[nH]1 [Example 273, 2-methyl-N-{1-methyl-1-[4-(trifluoromethoxy)phenyl]ethyl}-1,6-oxo-1,6-dihydropyrimidine-4-carboxamide] |  |  | 304 | 278 |
| Cc1nc(C(=O)N[C@@H](c2ccc(OC(F)(F)F)c(F)c2)C(C)(C)C)cc(=O)[nH]1 [Example 60, (R)-N-(1-(3-fluoro-4-(trifluoromethoxy)phenyl)-2,2-dimethylpropyl)-2-methyl-6-oxo-1,6-dihydropyrimidine-4-carboxamide] | 4.8 | 2.8 |  |  |
| O=C(NC1(c2ccc(OC(F)(F)F)cc2)CC1)c1cc(=O)[nH]c(-c2ncccn2)n1 [Example 285, 6-oxo-N-{1-[4-(trifluoromethoxy)phenyl]cyclopropyl}-1,6-dihydro-2,2′-bipyrimidine-4-carboxamide] |  |  | 46 | 46 |
| CC(C)[C@@H](NC(=O)c1cc(=O)[nH]c(C2CC2)n1)c1ccc(OC(F)(F)F)cc1 [Example 191, 2-cyclopropyl-N-{(1R)-2-methyl-1-[4-(trifluoromethoxy)phenyl]propyl}-6-oxo-1,6-dihydropyrimidine-4-carboxamide] |  |  | 3.4 | 1.2 |
| Cc1nc(C(=O)NC2(c3ccc(SC(F)(F)F)c(F)c3)CC2)cc(=O)[nH]1 [Example 261, N-(1-{3-fluoro-4-[(trifluoromethyl)sulfanyl]phenyl}cyclopropyl)-2-methyl-6-oxo-1,6-dihydropyrimidine-4-carboxamide] | 37 | 33 | 18 |  |
| COc1ccc(Cc2nc(C(=O)N[C@@H](c3ccc(SC(F)(F)F)c(F)c3)C(C)C)cc(=O)[nH]2)cc1F [Example 512, 2-(3-fluoro-4-methoxybenzyl)-N-[(1R)-1-{3-fluoro-4-[(trifluoromethyl)sulfanyl]phenyl}-2-methylpropyl]-6-oxo-1,6-dihydropyrimidine-4-carboxamide] | 1.5 | 1.6 |  |  |
| Cc1nc(C(=O)N[C@@H](c2ccc(C(F)(F)F)c(F)c2)C(C)C)cc(=O)[nH]1 [Example 240, N-{(1R)-1-[3-fluoro-4-(trifluoromethyl)phenyl]-2-methylpropyl}-2-methyl-6-oxo-1,6-dihydropyrimidine-4-carboxamide] |  |  | 14 | 8.8 |
| Cc1nc(C(=O)N[C@@H](c2ccc(C3CC3)cc2)C(C)(C)C)cc(=O)[nH]1 [Example 63, (R)-N-(1-(4-cyclopropylphenyl)-2,2-dimethylpropyl)-2-methyl-6-oxo-1,6-dihydropyrimidine-4-carboxamide] | 1.9 | 2 |  |  |
| C[C@@H](NC(=O)c1cc(=O)[nH]c(C2CC2)n1)c1ccc(C2CC2)cc1 [Example 256, 2-cyclopropyl-N-[(1R)-1-(4-cyclopropylphenyl)ethyl]-6-oxo-1,6-dihydropyrimidine-4-carboxamide] | 21 | 20 | 13 | ~12 |
